Assay results as given in publication PMC10872723 (Journal of medicinal chemistry, 2023).
Read-outs that look alike come from different tables or passages of the source. Each block holds one molecule with its values, some of them ahead of it.

How the values were obtained:
WDR5 [1] = molecular target: T1, WDR5 (Homo sapiens, UniProt P61964); settings: MIA PaCa-2 cells
IKZF1 = IKZF1 (Homo sapiens, UniProt Q13422); test: Western blotting of IKZF1 protein levels in MV4; settings: MV4;11 cells
WDR5 [2] = molecular target: T1, WDR5; test: Isothermal titration calorimetry; type: binding
VCB E3 ligase complex = VCB E3 ligase complex (Homo sapiens, UniProt P40337); test: Isothermal titration calorimetry; type: binding
VCB E3 ligase complex, sequence (Q15369 whole entry): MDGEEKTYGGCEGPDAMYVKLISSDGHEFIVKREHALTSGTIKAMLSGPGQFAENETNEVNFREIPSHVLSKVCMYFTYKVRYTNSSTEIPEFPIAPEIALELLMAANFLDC
VCB E3 ligase complex, sequence (Q15370 1-104, further chain): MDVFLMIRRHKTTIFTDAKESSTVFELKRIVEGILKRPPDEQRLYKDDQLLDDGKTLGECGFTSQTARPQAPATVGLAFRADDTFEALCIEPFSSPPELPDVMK
VCB E3 ligase complex, sequence (P40337 54-213): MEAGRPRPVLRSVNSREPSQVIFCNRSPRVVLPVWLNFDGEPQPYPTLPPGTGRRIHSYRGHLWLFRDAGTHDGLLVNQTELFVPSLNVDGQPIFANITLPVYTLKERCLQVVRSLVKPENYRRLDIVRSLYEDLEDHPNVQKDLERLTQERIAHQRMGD

WDR5 [3] = molecular target: T1, WDR5; test: Western blotting of WDR5 degradation in PDAC cell lines; type: cell-based; settings: 18 h; for WDR5 degradation (WB): MIA PaCa-2, BxPC-3, HPAF-II, Panc10.05 and PANC-1 cells, indicated concentrations
[4] = system: PDAC cell lines including MIA PaCa-2, BxPC-3, HPAF-II, Panc10.05, and PANC-1; test: Antiproliferative activity in PDAC cell lines; type: cell-based, human
WDR5 [5] = molecular target: T1, WDR5; test: Western blotting of WDR5 protein levels in MV4; settings: MV4;11 cells
LIMD1 = LIMD1 (Homo sapiens, UniProt Q9UGP4); test: Western blotting of LIMD1 protein levels in MV4; settings: MV4;11 cells, 0.1 and 0.5 μM, 18 h (Figure 5A)
LIMD1, sequence (Q9UGP4 whole entry): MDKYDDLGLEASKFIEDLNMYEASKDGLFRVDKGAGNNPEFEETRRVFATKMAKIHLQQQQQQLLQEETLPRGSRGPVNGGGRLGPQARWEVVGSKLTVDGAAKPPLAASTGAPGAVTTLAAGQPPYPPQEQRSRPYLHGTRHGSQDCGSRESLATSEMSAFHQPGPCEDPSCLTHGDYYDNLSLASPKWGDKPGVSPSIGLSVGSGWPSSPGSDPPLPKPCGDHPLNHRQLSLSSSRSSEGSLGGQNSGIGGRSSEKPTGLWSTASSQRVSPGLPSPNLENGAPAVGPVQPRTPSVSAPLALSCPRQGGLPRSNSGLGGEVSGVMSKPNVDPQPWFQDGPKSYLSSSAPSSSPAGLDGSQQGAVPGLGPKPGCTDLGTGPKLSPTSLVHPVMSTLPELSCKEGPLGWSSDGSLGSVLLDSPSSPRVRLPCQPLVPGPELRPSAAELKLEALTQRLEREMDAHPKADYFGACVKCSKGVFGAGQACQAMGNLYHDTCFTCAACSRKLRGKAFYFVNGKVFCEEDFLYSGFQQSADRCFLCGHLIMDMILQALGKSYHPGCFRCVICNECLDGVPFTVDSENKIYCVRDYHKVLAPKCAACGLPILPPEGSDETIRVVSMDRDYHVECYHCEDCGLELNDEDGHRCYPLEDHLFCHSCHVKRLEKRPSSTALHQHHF

[6] = system: WDR5-11–VCB ternary complex; test: ITC binding cooperativity, VCB into WDR5-11 binary complex; set-up: species or system human; settings: VCB binding to the WDR5-11 binary complex vs VCB into 11
MIA PaCa-2 cells = test: TMT MS-based global proteomic study in MIA PaCa-2 cells; type: cell-based, human; settings: 1.5 μM, 2 h, 4040 quantified proteins, cutoff P value less than 0.01, Log2 fold change greater than 0.5
Mouse PK study = settings: 75 mg/kg
[7] = system: PDAC cell lines including MIA PaCa-2, BxPC-3, HPAF-II, Panc10.05, and PANC-1; settings: previously reported; cited from earlier work
WDR5 K296R = WDR5 K296R (Homo sapiens, UniProt P61964, K296R); test: Immunoblot of WDR5 K296R mutant degradation in HEK293T cells; type: cell-based; settings: HEK293T cells overexpressing K296R (Dox), indicated concentrations, 3 days
[8] = indicated concentrations, 18 h (Figure 5C)
[9] = indicated concentrations, 18 h (Figure 5B)
[10] = 0.1 and 0.5 μM, 18 h (Figure 5A)

IKZF1, sequence (Q13422 whole entry): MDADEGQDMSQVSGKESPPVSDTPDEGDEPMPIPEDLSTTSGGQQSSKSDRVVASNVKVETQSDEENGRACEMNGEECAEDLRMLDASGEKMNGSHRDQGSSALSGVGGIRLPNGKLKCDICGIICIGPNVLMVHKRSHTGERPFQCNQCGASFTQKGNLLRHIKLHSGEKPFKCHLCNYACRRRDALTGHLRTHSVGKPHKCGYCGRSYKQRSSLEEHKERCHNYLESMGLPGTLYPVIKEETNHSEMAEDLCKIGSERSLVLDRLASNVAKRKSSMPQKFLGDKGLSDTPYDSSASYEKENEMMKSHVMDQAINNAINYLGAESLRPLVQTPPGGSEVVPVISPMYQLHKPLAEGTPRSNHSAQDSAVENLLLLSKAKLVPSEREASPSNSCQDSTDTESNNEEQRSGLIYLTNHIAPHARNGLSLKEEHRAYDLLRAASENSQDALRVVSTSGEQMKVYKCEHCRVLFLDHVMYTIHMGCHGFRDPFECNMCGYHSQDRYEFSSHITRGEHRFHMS

IKZF1 protein levels (WB) (IKZF1; [9]): had no effect on IKZF1 protein levels
Structure (SMILES): C[C@@H]1CN(c2ccc(-c3cc(C(=O)NCCCCCCCNC(=O)COc4cccc5c4C(=O)N(C4CCC(=O)NC4=O)C5=O)ccc3F)cc2NC(=O)c2c[nH]c(=O)cc2C(F)(F)F)C[C@H](C)N1C (stereo partly drawn) [Compound 25, N-(5′-((7-(2-((2-(2,6-Dioxopiperidin-3-yl)-1,3-dioxoisoindolin-4-yl)oxy)acetamido)heptyl)carbamoyl)-2′-fluoro-4-((3S,5R)-3,4,5-trimethylpiperazin-1-yl)-[1,1′-biphenyl]-3-yl)-6-oxo-4-(trifluoromethyl)-1,6-dihydropyridine-3-carboxamide]
WDR5 protein levels (WB) (WDR5 [1]; [8]): effectively reduced the cellular WDR5 protein levels

Structure (SMILES): Cc1ncsc1-c1ccc(CNC(=O)[C@H]2C[C@H](O)CN2C(=O)[C@@H](NC(=O)CNC(=O)c2ccc(F)c(-c3ccc(N4C[C@@H](C)N(C)[C@@H](C)C4)c(NC(=O)c4c[nH]c(=O)cc4C(F)(F)F)c3)c2)C(C)(C)C)cc1 [Compound 27, N-(2′-Fluoro-5′-((2-(((S)-1-((2R,4S)-4-hydroxy-2-((4-(4-methylthiazol-5-yl)benzyl)carbamoyl)pyrrolidin-1-yl)-3,3-dimethyl-1-oxobutan-2-yl)amino)-2-oxoethyl)carbamoyl)-4-((3S,5R)-3,4,5-trimethylpiperazin-1-yl)-[1,1′-biphenyl]-3-yl)-6-oxo-4-(trifluoromethyl)-1,6-dihydropyridine-3-carboxamide]
Kd (WDR5 [2]): 106 ± 43 nM
KD to VCB (ITC) (VCB E3 ligase complex; mean ± SD, three independent experiments): did not display any noticeable binding to VCB
WDR5 degradation (WB) (WDR5 [3]): unable to degrade WDR5 in all tested pancreatic cancer cells
Antiproliferative activity ([4]; PDAC cells, 6 day treatment): lack of antiproliferative activity

Structure (SMILES): CN1CCN(c2ccc(-c3cccc(CN4CCN(CCNC(=O)CCCCCCCNC(=O)COc5cccc6c5C(=O)N(C5CCC(=O)N(C)C5=O)C6=O)CC4)c3)cc2NC(=O)c2c[nH]c(=O)cc2C(F)(F)F)CC1 (centres unmarked) [Compound 22, N-(3′-((4-(2-(8-(2-((2-(1-Methyl-2,6-dioxopiperidin-3-yl)-1,3-dioxoisoindolin-4-yl)oxy)acetamido)octanamido)ethyl)piperazin-1-yl)methyl)-4-(4-methylpiperazin-1-yl)-[1,1′-biphenyl]-3-yl)-6-oxo-4-(trifluoromethyl)-1,6-dihydropyridine-3-carboxamide]
WDR5 protein levels (WB) (WDR5 [5]; [10]): did not have an effect on the protein levels of WDR5, IKZF1, and LIMD1
LIMD1 protein levels (WB) (LIMD1): did not have an effect on the protein levels of WDR5, IKZF1, and LIMD1
IKZF1 protein levels (WB) (IKZF1; [10]): did not have an effect on the protein levels of WDR5, IKZF1, and LIMD1

Structure (SMILES): Cc1ncsc1-c1ccc(CNC(=O)[C@@H]2C[C@@H](O)CN2C(=O)[C@@H](NC(=O)CNC(=O)c2ccc(F)c(-c3ccc(N4C[C@@H](C)N(C)[C@@H](C)C4)c(NC(=O)c4c[nH]c(=O)cc4C(F)(F)F)c3)c2)C(C)(C)C)cc1 [Compound 11, N-(2′-Fluoro-5′-((2-(((S)-1-((2S,4R)-4-hydroxy-2-((4-(4-methylthiazol-5-yl)benzyl)carbamoyl)pyrrolidin-1-yl)-3,3-dimethyl-1-oxobutan-2-yl)amino)-2-oxoethyl)carbamoyl)-4-((3S,5R)-3,4,5-trimethylpiperazin-1-yl)-[1,1′-biphenyl]-3-yl)-6-oxo-4-(trifluoromethyl)-1,6-dihydropyridine-3-carboxamide]
Kd (VCB E3 ligase complex): 534 ± 48 nM
Binding cooperativity α = KD (binary)/KD (ternary) [6]: 2.30
Time at which maximal WDR5 degradation achieved (WDR5 [1]; 0.1 μM): 24 h
Time at which significant WDR5 reduction observed (WDR5 [1]; 0.1 μM): 2 h
WDR5 protein levels (WB verification for proteomics) (WDR5 [1]; 1.5 μM, 2 h (Figure S5)): significantly reduced WDR5 protein levels
WDR5 protein levels (WB) (WDR5 [1]; 0.1 and 0.5 μM, 18 h (Figure 3)): effectively decreased the WDR5 protein levels
Proteome-wide degradation selectivity (MIA PaCa-2 cells): WDR5 is the only protein whose abundance was significantly decreased
Tmax (Mouse PK study; male, Swiss albino, mouse, plasma, ip): 30 min
Clinical signs during the PK study (Mouse PK study; mice, single IP injection): no clinical signs were observed
Plasma concentration maintained for the initial 4 h (Mouse PK study; mice, single IP injection): around 1 μM
Plasma concentration maintained over 12 h (Mouse PK study; mice, single IP injection): above 100 nM
WDR5 degradation (WB) (WDR5 [3]): induced WDR5 degradation in a concentration-dependent manner
Hook effect in WDR5 degradation (WDR5 [3]; PDAC cells, concentrations up to 50 μM): no “hook effect” observed
GI50 ([4]; Homo sapiens, 144 h): 4000 to 32000 nM

Effectiveness in downregulating WDR5 protein levels relative to other degraders (WDR5 [5]; [10]): slightly more effective than MS40 and 23
Structure (SMILES): CN1CCN(c2ccc(-c3cccc(CN4CCN(CCNC(=O)CCCCCCCNC(=O)COc5cccc6c5C(=O)N(C5CCC(=O)NC5=O)C6=O)CC4)c3)cc2NC(=O)c2c[nH]c(=O)cc2C(F)(F)F)CC1 (centres unmarked) [Compound 21, N-(3′-((4-(2-(8-(2-((2-(2,6-Dioxopiperidin-3-yl)-1,3-dioxoisoindolin-4-yl)oxy)acetamido)octanamido)ethyl)piperazin-1-yl)methyl)4-(4-methylpiperazin-1-yl)-[1,1′-biphenyl]-3-yl)-6-oxo-4-(trifluoromethyl)-1,6-dihydropyridine-3-carboxamide]
WDR5 protein levels (WB) (WDR5 [5]; [10]): effectively downregulated WRD5 protein levels
WDR5 protein levels (WB) (WDR5 [1]; [8]): effectively reduced the cellular WDR5 protein levels
LIMD1 protein levels (WB) (LIMD1): completely ineffective in degrading neo-substrate IKZF1, and protein LIMD1
IKZF1 protein levels (WB) (IKZF1; [10]): completely ineffective in degrading neo-substrate IKZF1

Structure (SMILES): CN1CCN(c2ccc(-c3cccc(CN4CCN(CCNC(=O)CCCCNC(=O)COc5cccc6c5C(=O)N(C5CCC(=O)NC5=O)C6=O)CC4)c3)cc2NC(=O)c2c[nH]c(=O)cc2C(F)(F)F)CC1 (centres unmarked) [Compound 23, N-(3′-((4-(2-(5-(2-((2-(2,6-Dioxopiperidin-3-yl)-1,3-dioxoisoindolin-4-yl)oxy)acetamido)pentanamido)ethyl)piperazin-1-yl)methyl)-4-(4-methylpiperazin-1-yl)-[1,1′-biphenyl]-3-yl)-6-oxo-4-(trifluoromethyl)-1,6-dihydropyridine-3-carboxamide]
WDR5 protein levels (WB) (WDR5 [5]; [10]): to a less extent effectively downregulated WRD5 protein levels
LIMD1 protein levels (WB) (LIMD1): completely ineffective in degrading neo-substrate IKZF1, and protein LIMD1
IKZF1 protein levels (WB) (IKZF1; [10]): completely ineffective in degrading neo-substrate IKZF1

Structure (SMILES): CN1CCN(c2ccc(-c3cccc(CN4CCOCC4)c3)cc2NC(=O)c2c[nH]c(=O)cc2C(F)(F)F)CC1 [OICR-9429]
Antiproliferative activity [7]: lack of antiproliferative activity

Structure (SMILES): CN1CCN(c2ccc(-c3cccc(CN4CCN(CCNC(=O)CCCCNC(=O)COc5cccc6c5C(=O)N(C5CCC(=O)N(C)C5=O)C6=O)CC4)c3)cc2NC(=O)c2c[nH]c(=O)cc2C(F)(F)F)CC1 (centres unmarked) [Compound 24, N-(3′-((4-(2-(5-(2-((2-(1-Methyl-2,6-dioxopiperidin-3-yl)-1,3-dioxoisoindolin-4-yl)oxy)acetamido)pentanamido)ethyl)piperazin-1-yl)methyl)-4-(4-methylpiperazin-1-yl)-[1,1′-biphenyl]-3-yl)-6-oxo-4-(trifluoromethyl)-1,6-dihydropyridine-3-carboxamide]
WDR5 protein levels (WB) (WDR5 [5]; [10]): did not have an effect on the protein levels of WDR5, IKZF1, and LIMD1
LIMD1 protein levels (WB) (LIMD1): did not have an effect on the protein levels of WDR5, IKZF1, and LIMD1
IKZF1 protein levels (WB) (IKZF1; [10]): did not have an effect on the protein levels of WDR5, IKZF1, and LIMD1

Degradation of WDR5 K296R mutant (WDR5 K296R): resistant to the MS67 treatment
Structure (SMILES): Cc1ncsc1-c1ccc([C@H](C)NC(=O)[C@@H]2C[C@@H](O)CN2C(=O)[C@@H](NC(=O)CNC(=O)c2ccc(F)c(-c3ccc(N4C[C@@H](C)N(C)[C@@H](C)C4)c(NC(=O)c4c[nH]c(=O)cc4C(F)(F)F)c3)c2)C(C)(C)C)cc1 [MS67]

Structure (SMILES): C[C@@H]1CN(c2ccc(-c3cc(C(=O)NCCCCCCCNC(=O)COc4cccc5c4C(=O)N(C4CCC(=O)N(C)C4=O)C5=O)ccc3F)cc2NC(=O)c2c[nH]c(=O)cc2C(F)(F)F)C[C@H](C)N1C (stereo partly drawn) [Compound 26, N-(2′-Fluoro-5′-((7-(2-((2-(1-methyl-2,6-dioxopiperidin-3-yl)-1,3-dioxoisoindolin-4-yl)oxy)acetamido)heptyl)carbamoyl)-4-((3S,5R)-3,4,5-trimethylpiperazin-1-yl)-[1,1′-biphenyl]-3-yl)-6-oxo-4-(trifluoromethyl)-1,6-dihydropyridine-3-carboxamide]
WDR5 protein levels (WB) (WDR5 [5]; indicated concentrations, 18 h (Figures 5B and S1)): did not affect the protein levels of WDR5 and IKZF1
IKZF1 protein levels (WB) (IKZF1; [9]): did not affect the protein levels of WDR5 and IKZF1
